Assay results reported in BindingDB's records for doi:10.1021/acs.jmedchem.1c00124 (Hemoshear Therapeutics, 2021).

What was measured:
[1] = Time-dependent inhibition of CYP2D6 in human liver microsomes using bufuralol as substrate preincubated for 30 mins
[2] = Time-dependent inhibition of CYP2C9 in human liver microsomes using diclofenac as substrate preincubated for 30 mins
[3] = Direct inhibition of CYP2C19 in human liver microsomes using S-mephenytoin as substrate
[4] = Time-dependent inhibition of CYP2C19 in human liver microsomes using S-mephenytoin as substrate preincubated for 30 mins
[5] = Direct inhibition of CYP2D6 in human liver microsomes using bufuralol as substrate
[6] = Time-dependent inhibition of CYP2C8 in human liver microsomes using amodiaquine as substrate preincubated for 30 mins
[7] = Direct inhibition of CYP1A2 in human liver microsomes using Phenacetin as substrate
[8] = Direct inhibition of CYP2C9 in human liver microsomes using diclofenac as substrate
[9] = Direct inhibition of CYP2C8 in human liver microsomes using amodiaquine as substrate
[10] = Time-dependent inhibition of CYP1A2 in human liver microsomes using Phenacetin as substrate preincubated for 30 mins

Measured: IC50

CCC(C)(C)C(=O)O [2,2-DIMETHYLBUTYRATE]
> 10 mM: [1] | [2] | [3] | [4] | [5] | [6] | [7] | [8] | [9] | [10]
